The values below come from ChEMBL document CHEMBL4049445.

Active and inactive are the calls of the source. No cut-off for these calls is given here.

For the experiment, the system named is Influenza A virus. The experiment in a line: Antiviral activity against Influenza A virus A/PR/8/34 expressing amantadine-resistant M2 proton channel S31N mutant infected in MDCK cells. It is filed as functional, cell-based. Particulars: A/Puerto Rico/8/1934(H1N1).
Regarding `C1CC(C2C3CC4CC(C3)CC2C4)CCN1` (configuration not stated), the result was inactive. As to `N=C(N)N1CCC(C23CC4CC(CC(C4)C2)C3)CC1`, the result was inactive.

With `CCN1CCC(C2C3CC4CC(C3)CC2C4)CC1` (configuration not stated), the outcome was inactive. For `C(=C1C2CC3CC(C2)CC1C3)C1CCNCC1` the value was “inactive”; for `C1CC(C23CC4CC(CC(C4)C2)C3)CCN1`, “inactive”. To `C1CCC(C23CC4CC(CC(C4)C2)C3)NC1` (configuration not stated) belongs “inactive”; to `OC1(C2CCNCC2)C2CC3CC(C2)CC1C3` (configuration not stated), “inactive”; to `N=C(N)N1CCC(C=C2C3CC4CC(C3)CC2C4)CC1`, “inactive”. To `OC1(CC2CCNCC2)C2CC3CC(C2)CC1C3` (configuration not stated) belongs “inactive”; to `C1CC(CC2C3CC4CC(C3)CC2C4)CCN1` (configuration not stated), “inactive”; to `N=C(N)N1CCC(CC2C3CC4CC(C3)CC2C4)CC1` (configuration not stated), “inactive”. In the case of `CN1CCC(CC2C3CC4CC(C3)CC2C4)CC1` (configuration not stated), the result was inactive.
